From patent US12084472B2 (Ardelyx, Inc., priority 2015, dated 2024)

These compounds were tested against T1, human TGR5 (Homo sapiens, UniProt Q8TDU6) (assay: Cell-based TGR5 assay (cAMP generation, HTRF)). Settings: HEK293 cells stably transfected with human TGR5; cAMP by HTRF; 30 minutes at 37° C.; read-out: pEC50 Human TGR5 (converted).
T1 construct: expressed in transfected cells; host or cells: HEK293
T1 sequence (Q8TDU6 1-330): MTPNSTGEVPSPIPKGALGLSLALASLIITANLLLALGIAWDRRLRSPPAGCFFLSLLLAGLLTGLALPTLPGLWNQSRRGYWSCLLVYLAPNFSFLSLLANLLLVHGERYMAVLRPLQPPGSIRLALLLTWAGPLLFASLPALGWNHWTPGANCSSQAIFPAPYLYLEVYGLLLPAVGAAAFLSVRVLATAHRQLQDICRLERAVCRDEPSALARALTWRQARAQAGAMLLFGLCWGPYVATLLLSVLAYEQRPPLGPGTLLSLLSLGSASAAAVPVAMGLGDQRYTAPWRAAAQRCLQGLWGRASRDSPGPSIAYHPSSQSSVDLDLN
How it was run: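 First, compounds in 3-fold serial dilution were placed in HBSS with 10 mM HEPES pH 7.4 and 0.5 mM IBMX. Next, human TGR5-expressing HEK293 cells were added and incubated 30 min at 37° C. Finally, cAMP was detected by HTRF and pEC50 derived by logistic fitting.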
In the case of `Cc1ccc(SCCCCC(=O)N(C)C[C@H](O)[C@@H](O)[C@H](O)[C@H](O)CO)nc1COC1(c2cnccc2-c2ccccc2OC2CC2)CC1` [Compound I-658, 5-{[6-({1-[4-(2-cyclopropoxyphenyl)pyridin-3-yl]cyclopropoxy}methyl)-5-methylpyridin-2-yl]sulfanyl}-N-methyl-N-[(2S,3R,4R,5R)-2,3,4,5,6-pentahydroxyhexyl]pentanamide], the EC50 was 1260 to 10000 nM. In the case of `CC(CCCCC(=O)N(C)C[C@H](O)[C@@H](O)[C@H](O)[C@H](O)CO)c1ccc(Cl)c(CNC2(c3cnccc3-c3ccccc3OC3CC3)CC2)c1` (stereo partly drawn) [Compound I-330, 6-{4-chloro-3-[({1-[4-(2-cyclopropoxyphenyl)pyridin-3-yl]cyclopropyl}amino)methyl]phenyl}-N-methyl-N-[(2S,3R,4R,5R)-2,3,4,5,6-pentahydroxyhexyl]heptanamide], the EC50 was < 100 nM. `CN(C[C@H](O)[C@@H](O)[C@H](O)[C@H](O)CO)C(=O)CC1CN(S(=O)(=O)c2ccc(Cl)c(COC3(c4cnccc4-c4ccccc4OC4CC4)CC3)c2)C1` [Compound I-447, 2-{1-[4-chloro-3-({1-[4-(2-cyclopropoxyphenyl)pyridin-3-yl]cyclopropoxy}methyl)benzenesulfonyl]azetidin-3-yl}-N-methyl-N-[(2S,3R,4R,5R)-2,3,4,5,6-pentahydroxyhexyl]acetamide] was tested, and the EC50 was < 100 nM. In the case of `Clc1ccc(Cl)c(COC2(c3cnccc3-c3ccccc3OC3CC3)CCOC2)c1` (stereo not drawn) [Compound I-743, 4-(2-cyclopropoxyphenyl)-3-(3-((2,5-dichlorobenzyl)oxy)tetrahydrofuran-3-yl)pyridine], the EC50 was < 100 nM. `CCN(CCCCc1cc(Cl)c(COC2(c3cnccc3-c3ccccc3OC3CC3)CC2)cc1C)C(=O)NC[C@H](O)[C@@H](O)[C@H](O)[C@H](O)CO` [Compound I-96, 1-(4-(5-chloro-4-((1-(4-(2-cyclopropoxyphenyl)pyridin-3-yl)cyclopropoxy)methyl)-2-methylphenyl)butyl)-1-ethyl-3-((2S,3R,4R,5R)-2,3,4,5,6-pentahydroxyhexyl)urea] was tested, and the EC50 was < 100 nM. `NC(=O)N(Cc1cc(Cl)ccc1Cl)C1(c2cnccc2-c2ccccc2OC2CC2)CC1` [Compound I-57, 1-[1-[4-(2-cyclopropoxyphenyl)pyridin-3-yl]cyclopropyl]-1-[(2,5-dichloro-phenyl)methyl]urea] showed an EC50 of 1260 to 10000 nM. `CN(C[C@H](O)[C@@H](O)[C@H](O)[C@H](O)CO)C(=O)NCCCCCc1cc(Cl)c(CNC2(c3cnccc3-c3ccccc3OC3CC3)CC2)cc1Cl` (stereo in doubt) [Compound I-163, 1-(5-{2,5-dichloro-4-[({1-[4-(2-cyclopropoxyphenyl)pyridin-3-yl]cyclopropyl}amino)methyl]phenyl}pentyl)-3-methyl-3-[(2S,3R,4R,5R)-2,3,4,5,6-pentahydroxyhexyl]urea] was tested, and the EC50 was < 100 nM. `O=C(NCCC1CN(S(=O)(=O)c2ccc(Cl)c(COC3(c4cnccc4-c4ccccc4OC4CC4)CC3)c2)C1)NC[C@H](O)[C@@H](O)[C@H](O)[C@H](O)CO` [Compound I-421, 1-(2-{1-[4-chloro-3-({1-[4-(2-cyclopropoxyphenyl)pyridin-3-yl]cyclopropoxy}methyl)benzenesulfonyl]azetidin-3-yl}ethyl)-3-[(2S,3R,4R,5R)-2,3,4,5,6-pentahydroxyhexyl]urea] was tested, and the EC50 was < 100 nM. `O=C(N[C@@H](CO)[C@@H](O)[C@H](O)[C@H](O)CO)c1cccc(OCc2ccc(Cl)c(COC3(c4cnccc4-c4ccccc4OC4CC4)CC3)c2)c1` [Compound I-756, 3-((4-chloro-3-((1-(4-(2-cyclopropoxyphenyl)pyridin-3-yl)cyclopropoxy)methyl)benzyl)oxy)-N-((2S,3R,4S,5R)-1,3,4,5,6-pentahydroxyhexan-2-yl)benzamide] gave an EC50 of 126 to 1000 nM. With `O=C(NCCCCC[S+]([O-])c1ccc(Cl)c(COC2(c3cnccc3-c3ccccc3OC3CC3)CC2)c1)N[C@@H](CO)[C@@H](O)[C@H](O)[C@H](O)CO` (stereo partly drawn) [Compound I-642, 1-{5-[4-chloro-3-({1-[4-(2-cyclopropoxyphenyl)pyridin-3-yl]cyclopropoxy}methyl)benzenesulfinyl]pentyl}-3-[(2S,3R,4S,5R)-1,3,4,5,6-pentahydroxyhexan-2-yl]urea] the EC50 was < 100 nM. With `COc1c(F)cc(CNC2(c3cnccc3-c3ccccc3OC3CC3)CC2)c(C)c1Cl` [Compound I-36, N-[(3-chloro-5-fluoro-4-methoxy-2-methylphenyl)methyl]-1-[4-(2-cyclopropoxyphenyl)pyridin-3-yl]cyclopropan-1-amine] the EC50 was 126 to 1000 nM. `O=C(CCCSc1ccc(Cl)c(CNC2(c3cnccc3-c3ccccc3OC3CC3)CC2)c1)NC[C@H](O)[C@@H](O)[C@H](O)[C@H](O)CO` [Compound I-649, 4-({4-chloro-3-[({1-[4-(2-cyclopropoxyphenyl)pyridin-3-yl]cyclopropyl}amino)methyl]phenyl}sulfanyl)-N-[(2S,3R,4R,5R)-2,3,4,5,6-pentahydroxyhexyl]butanamide] was tested, and the EC50 was < 100 nM. `O=C(NCCCCCSc1ccc(Cl)c(COC2(c3cnccc3-c3ccccc3OC3CC3)CC2)c1)N[C@@H](CO)[C@@H](O)[C@H](O)[C@H](O)CO` [Compound I-636, 1-(5-{[4-chloro-3-({1-[4-(2-cyclopropoxyphenyl)pyridin-3-yl]cyclopropoxy}methyl)phenyl]sulfanyl}pentyl)-3-[(2S,3R,4S,5R)-1,3,4,5,6-pentahydroxyhexan-2-yl]urea] was tested, and the EC50 was < 100 nM. In the case of `Cc1cc(COC2(c3cnccc3-c3ccccc3OC3CC3)CC2)c(Cl)cc1CCCCN(C)C(=O)NC[C@H](O)[C@@H](O)[C@H](O)[C@H](O)CO` [Compound I-115, 1-{4-[5-chloro-4-({1-[4-(2-cyclopropoxyphenyl)pyridin-3-yl]cyclopropoxy}methyl)-2-methylphenyl]butyl}-1-methyl-3-[(2S,3R,4R,5R)-2,3,4,5,6-pentahydroxyhexyl]urea], the EC50 was < 100 nM. With `O=C(NCCCCCSc1ccc(Cl)c(CNC2(c3cnccc3-c3ccccc3OC3CC3)CC2)c1)NC[C@H](O)[C@@H](O)[C@H](O)[C@H](O)CO` [Compound I-494, 1-[5-([4-Chloro-3-[([1-[4-(2-cyclopropoxyphenyl)pyridin-3-yl]cyclopropyl]amino)methyl]phenyl]sulfanyl)pentyl]-3-[(2S,3R,4R,5R)-2,3,4,5,6-pentahydroxyhexyl]urea] the EC50 was < 100 nM. `CN(C[C@H](O)[C@@H](O)[C@H](O)[C@H](O)CO)C(=O)CCCSc1ccc(Cl)c(COC2(c3cnccc3-c3ccccc3OC3CC3)CC2)c1` [Compound I-648, 4-{[4-chloro-3-({1-[4-(2-cyclopropoxyphenyl)pyridin-3-yl]cyclopropoxy}methyl)phenyl]sulfanyl}-N-methyl-N-[(2S,3R,4R,5R)-2,3,4,5,6-pentahydroxyhexyl]butanamide] was tested, and the EC50 was < 100 nM. For `Cc1ccc(Cl)cc1COC1(c2cnccc2-c2ccccc2OC2CC2)CC1` [Compound I-55, 3-{1-[(5-chloro-2-methylphenyl)methoxy]cyclopropyl}-4-(2-cyclopropoxyphenyl)pyridine], the EC50 was < 100 nM. `Cc1cc(COC2(c3cnccc3-c3ccccc3OC3CC3)CC2)c(Cl)cc1CCCCNC(=O)N1CCN(C[C@H](O)[C@@H](O)[C@@H](O)[C@H](O)CO)CC1` [Compound I-114, N-{4-[5-chloro-4-({1-[4-(2-cyclopropoxyphenyl)pyridin-3-yl]cyclopropoxy}methyl)-2-methylphenyl]butyl}-4-[(2S,3R,4S,5R)-2,3,4,5,6-pentahydroxyhexyl]piperazine-1-carboxamide] was tested, and the EC50 was < 100 nM.
